The values that follow come from patent US7612079B2, “2,6,9-substituted purine derivatives and their use in the treatment of proliferative disorders” (Cyclacel Limited, priority 2001, dated 2009).

The test system of data set [1] is A2780. The data set is described as follows: 72-h MTT proliferation assay, A2780. Format: cell-based. To be noted: Homo sapiens, read-out: IC50 Cell line A2780. An excerpt:
(§1) Selected compounds from the above examples were subjected to a standard cellular proliferation assay using seven different human tumour cell lines: A2780, A278CisF, CH1, CH1DoxR, HCT116, HT29 and KM12. […] Human tumour cell lines were obtained from the ATCC (American Type Culture Collection, 10801 University Boulevard, Manessas, Va. 20110-2209, USA). The results are shown in Table 1, together with the average IC50 over the seven different cell lines.

In data set [2] the test system is seven different human tumour cell lines: A2780, A278CisF, CH1, CH1DoxR, HCT116, HT29 and KM12. The data set is described as follows: 72-h MTT proliferation assay, average over seven cell lines. Format: cell-based. To be noted: read-out: IC50 Cell line Average. An excerpt: Selected compounds from the above examples were subjected to a standard cellular proliferation assay using seven different human tumour cell lines: A2780, A278CisF, CH1, CH1DoxR, HCT116, HT29 and KM12.
In general terms: Tetrazolium dyes change colour on reduction, which living cells bring about.

The subject of data set [3] is CH1. The data set is described as follows: 72-h MTT proliferation assay, CH1. Format: cell-based. To be noted: Homo sapiens, read-out: IC50 Cell line CH1.
Text: as §1

For data set [4], the system named is HT29. Kind of data set: 72-h MTT proliferation assay, HT29. The data set is classed as cell-based. To be noted: Homo sapiens, HT-29, read-out: IC50 Cell line HT29.
Text: as §1

For data set [5], the target named is T1, CDK2/cyclin E (Homo sapiens, UniProt P24941).
T1 construct: His; made in house; host or cells: Sf9 insect cells (baculovirus)
The data set is described as follows: CDK2/cyclin E kinase assay (GST-Rb phosphorylation). The data set is classed as biochemical. To be noted: Table 1. The procedure: Assays for CDK2/cyclin E kinase, CDK1/cyclin B and CDK4/cyclin D1 may be carried out by monitoring phosphorylation of GST-Rb in an appropriate system. […] The phosphorylation reaction mixture (total volume 40 μl) consisted of 50 mM HEPES pH 7.4, 20 mM MgCl2, 5 mM EGTA, 2 mM DTT, 20 mM β-glycerophosphate, 2 mM NaF, 1 mM Na3VO4, Protease Inhibitors Cocktail (Sigma, see above), BSA 0.5 mg/ml, 1 μg purified enzyme complex, 10 μl of GST-Rb-Sepharose-beads, 100 μM ATP, 0.2 μCi ^32P-ATP. The reaction is carried out for 30 min at 30° C. at constant shaking. At the end of this period 100 μl of 50 mM HEPES, pH 7.4 and 1 mM ATP is added to each well and the total volume transferred onto GFC filtered plate. The plate is washed 5 times with 200 μl of 50 mM HEPES, pH 7.4 and 1 mM ATP. To each well was added 50 μl scintillant liquid and the radioactivity of the samples is measured on Scintilation counter (Topcount, HP). The IC50 values of different peptides were calculated using GraFit software.
For use in said assay CDK2 may be obtained from available sources or produced by recombinant methods as described His-tagged CDK2/Cyclin E and CDK1/Cyclin B may be co-expressed in Sf 9 insect cells infected with the appropriate baculovirus constructs. The cells are harvested two days after infection by low speed centrifugation and the proteins purified from the insect cell pellets by Metal-chelate chromatography. Briefly, the insect cell pellet is lysed in Buffer A (10 mM Tris-HCl, pH 8.0, 150 mM NaCl, 0.02% NP40 and 5 mM, β-marcaptoethanol, 1 mM NaF. 1 mM Na3VO4 and Protease Inhibitors Coctail (Sigma) containing AEBSF, pepstatin A, E 64, bestatin, leupeptin) by sonication. The soluble fraction is cleared by centrifugation and loaded onto Ni-NTA-Agarose (Quiagen). Non bound proteins were washed off with 300 mM NaCl, 5-15 mM Imidazole in Buffer A and the bound proteins eluted with 250 mM Imidazole in Buffer A. The purified proteins are extensively dialyzed against Storage buffer (20 mM HEPES pH 7.4, 50 mM NaCl, 2 mM DTT, 1 mM EDTA, 1 mM EGTA, 0.02% NP40, 10% v/v Glycerol) aliquoted and stored at −70° C. PKC-α—6×His may be purified the same way but using different buffers—50 mM NaH2PO4, pH 8.0 and 0.05% Triton X-100 instead of Tris and NP40 respectively.

In data set [6] the test system is A2780 CisR. The data set is described as follows: 72-h MTT proliferation assay, A2780 CisR. The data set is classed as cell-based. The settings on record: Homo sapiens, A2780cisR, read-out: IC50 Cell line A2780 CisR.
Text: as §1

Data set [7] relates to CH1DoxR. Kind of data set: 72-h MTT proliferation assay, CH1DoxR. Format: cell-based. To be noted: Homo sapiens, read-out: IC50 Cell line CH1DoxR.
Text: as §1

The nature of data set [8]: in vivo. The settings on record: mouse.
For data set [9], the system named is KM12. The data set is described as follows: 72-h MTT proliferation assay, KM12. To be noted: Homo sapiens, read-out: IC50 Cell line KM12. Format: cell-based.
Text: as §1

The test system of data set [10] is HCT116. The data set is described as follows: 72-h MTT proliferation assay, HCT116. Format: cell-based. To be noted: Homo sapiens, HCT-116, read-out: IC50 Cell line HCT116.
Text: as §1

Data set [11] in a line: Metabolic carbinol-carboxyl oxidation. The settings on record: remark in Table 1.
Data set [12] has as its target T2, cyclic AMP-dependent kinase (PKA) catalytic subunit (Homo sapiens, UniProt P17612).
T2 construct: purchased Calbiochem 539487
The data set is described as follows: PKA kinase assay (Kemptide phosphorylation). The settings on record: Table 2; read-out: Kinase inhibition PKA IC50. The data set is classed as biochemical. As for the experimental part: The reaction mixture (total volume 50 μl) consisted of 20 mM MOPS, pH 7.2, 25 mM β-glycerophosphate, 5 mM EGTA, 1 mM DTT, 1 mM Na3VO4, 10 mM MgCl2, 100 μM ATP, 0.2 μCi [γ-^32P]-ATP.

A short description of data set [13]: Aqueous solubility. The data set is classed as physicochemical. The settings on record: remark in Table 1; versus Roscovitine. An excerpt: […]. […] […]
In data set [14] the target is T3, mouse ERK-2 (Mus musculus, UniProt P63085).
T3 construct: purchased Upstate Biotechnologies
The data set is described as follows: ERK-2 kinase assay (MBP phosphorylation). The settings on record: Table 2; read-out: Kinase inhibition ERK2 IC50. The data set is classed as biochemical. The procedure:
ERK-2 kinase activity was measured by the incorporation of radioactive phosphate into myelin basic protein (MBP), catalysed by purified mouse ERK-2 (Upstate Biotechnologies). The reaction mixture (total volume 50 μL) consisted of 20 mM MOPS, pH 7.0,25 mM β-glycerophosphate, 5 mM EGTA, 1 mM DTT, 1 mM Na3VO4, 10 mM MgCl2, 100 μM ATP, 0.2 μCi [γ-^32P]-ATP.

Data set [15] concerns A549, HT29, Saos-2. Kind of data set: In vitro anti-proliferative activity, 72-h MTT, A549, HT29, Saos-2. The settings on record: read-out: In vitro anti-proliferative activity (72-h MTT IC50), Cell lines: A549, HT29, Saos-2. Format: cell-based.
The nature of data set [16]: Pharmacokinetic analysis in mice.

T3 sequence (P63085 whole entry): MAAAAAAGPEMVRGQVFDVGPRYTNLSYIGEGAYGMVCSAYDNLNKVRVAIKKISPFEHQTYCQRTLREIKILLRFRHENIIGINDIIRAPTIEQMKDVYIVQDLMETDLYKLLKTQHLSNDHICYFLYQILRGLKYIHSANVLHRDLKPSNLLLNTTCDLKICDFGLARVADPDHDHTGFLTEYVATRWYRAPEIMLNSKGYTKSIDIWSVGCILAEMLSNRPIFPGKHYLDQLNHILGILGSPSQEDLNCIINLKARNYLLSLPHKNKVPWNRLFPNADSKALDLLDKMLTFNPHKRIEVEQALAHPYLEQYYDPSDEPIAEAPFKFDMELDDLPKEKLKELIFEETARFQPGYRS

For the compound `OC1CCCN(c2nc(Nc3ccc4c(c3)CCC4)c3ncn(C4CCCC4)c3n2)C1` (centres unmarked) [Example 1, 1-[9-Cyclopentyl-6-(indan-5-ylamino)-9H-purin-2-yl]-piperidin-3-ol], the IC50 in data set [1] is 2.2 µM; in data set [2] it was 2 µM; in [3], 1.5 µM; in [4], 1.8 µM; in [5], 0.58 ± 0.33 µM; in data set [6] it was 1.1 µM. Also, the IC50 in data set [7] came out at 1.7 µM; in data set [9] it was 0.34 µM; in data set [10] it was 5.7 µM. The same compound showed an AUC(0-inf) in data set [8] of 62500 ng·h/mL. Besides, the half-life in [8] is 5.5 h.
In the case of `CC[C@H](Nc1nc(NCc2ccccc2)c2ncn(C(C)C)c2n1)[C@@H](C)O` [Example 7 (2R,3S), (2R,3S)-3-(6-Benylamino-9-isopropyl-9H-purin-2-ylamino)-pentan-2-ol], the IC50 is 3.3 µM in data set [1]; 1.8 µM in data set [3]; 5 µM in data set [4]; 3.4 µM in data set [6]; 1.3 µM in [7]; 1.9 µM in [9]. Also, in [10], the IC50 was determined as 1.5 µM. For the same compound, the “PK remark: carbinol metabolism” value in data set [11] was “Blocked carbinol metabolism”.
On to `CC[C@@H](Nc1nc(NCc2ccccc2)c2ncn(C(C)C)c2n1)C(C)O` (mixture of isomers) [7 (2RS,3R), (2RS, 3R)-3-(6-Benzylamino-9-isopropyl-9H-purin-2-ylamino)-pentan-2-ol], for which the IC50 amounted to 6.6 µM in [1]; 13.8 µM in data set [2]; 17 µM in data set [3]; 15 µM in data set [4]; 15 µM in [6]; 12 µM in data set [7]. The IC50 in data set [9] turned out to be 19 µM; in data set [10], 12 µM. Besides, the “PK remark: carbinol metabolism” value in data set [11] is on record as “Blocked carbinol metabolism”.
Turning to `CC[C@H](CO)Nc1nc(NCc2ccccn2)c2ncn(C(C)C)c2n1` [Example 5, (R)-2-{9-Isopropyl-6-[(pyridin-2:ylmethyl)-amino]-9H-purin-2:ylamino}-butan-1-ol], the melting point was 30 to 35 °C. For the same compound, the IC50 in data set [1] amounted to 22 µM. For the same compound, in data set [2], the IC50 came to 31 µM. In addition, in data set [3], the 50% inhibitory concentration (IC50) stood at 26 µM. Moreover, the IC50 in [4] came to 54 µM. For the same compound, the half-inhibitory concentration (IC50) in [12] is greater than 50 µM. Further, the IC50 in data set [6] stood at 28 µM. Further, the IC50 in [7] was 23 µM. Also, the “PK remark: aqueous solubility” value in [13] is given as “Improved aqueous solubility”. Moreover, the concentration for half-maximal inhibition (IC50) in [9] is 38 µM. In data set [14], the IC50 turned out to be 9.5 µM. Besides, the IC50 in [15] stood at 4.5 µM. The IC50 in [10] amounted to 26 µM.
As for `CC[C@H](CO)Nc1nc(NCc2ccccc2)c2ncn(C(C)C)c2n1` [Roscovitine], the AUC in data set [16] (mice, comparative value) is given as 75454 nh-h/mL. The half-life in data set [16] (mouse, in vivo) was 2.7 h.
For `CC[C@@H](Nc1nc(NCc2ccccc2)c2ncn(C(C)C)c2n1)[C@H](C)O` [Example 7 (2S,3R), (2S, 3R)-3-(6-Benzylamino-9-isopropyl-9H-purin-2-ylamino)-pentan-2-ol], the IC50 stood at 6.4 µM in data set [1]; 6.9 µM in [2]; 5 µM in data set [3]; 3.8 µM in data set [6]; 4.6 µM in [7]; 5.4 µM in data set [9]. Besides, the IC50 in data set [10] was 5.4 µM. Besides, the “PK remark: carbinol metabolism” value in [11] is on record as “Blocked carbinol metabolism”.
For the compound `CC[C@H](CO)Nc1nc(Nc2cccc([N+](=O)[O-])c2)c2ncn(C(C)C)c2n1` [Example 4, (R)-2-[9-Isopropyl-6-(3-nitro-phenlamino)-9H-purin-2-ylamino]-butan-1-ol], the IC50 in data set [1] worked out at 0.245 µM; in data set [2], 1.1 µM; in data set [3], 1.1 µM; in data set [4], 2.1 µM; in data set [5] it was 0.028 ± 0.01 µM; in [6] it was 1.7 µM. Besides, the IC50 was 0.56 µM in data set [7], 0.76 µM in data set [9] and 1.2 µM in data set [10].
With `CC(C)[C@H](CO)Nc1nc(Nc2cccc([N+](=O)[O-])c2)c2ncn(C(C)C)c2n1` [Example 3, (R)-2-[9-Isopropyl-6-(3-nitro-phenylamino)-9H-purin-2-ylamino]-3-methyl-butan-1-ol], the IC50 in [1] came to 1.1 µM; in [2], 2.3 µM; in data set [3], 2.3 µM; in data set [4] it was 4.3 µM; in [5], 0.33 ± 0.45 µM; in [6], 2.85 µM. The IC50 in data set [7] was determined as 1.8 µM; in data set [9], 1.05 µM; in data set [10], 2.45 µM.
As for `COc1ccc(CNc2nc(N3CCCC(O)C3)nc3c2ncn3C2CCCC2)cc1OC` (centres unmarked) [Example 2, 1-[9-Cyclopentyl-6-(3.4-dimethoxy-benzylamino)-9H-purin-2-yl]piperidin-3-ol], the IC50 in data set [1] was 0.078 µM; in data set [2] it was 4.9 µM; in data set [3], 0.94 µM; in [4] it was 4.4 µM; in [5], 1.84 ± 0.31 µM; in data set [6] it was 14 µM. In addition, the IC50 in [7] was 2.4 µM; in [9], 6.4 µM; in [10] it was 6.1 µM. This compound yielded an AUC(0-inf) in data set [8] of 19500 ng·h/mL. This compound also had a half-life in data set [8] of 4.2 h.

Broadly, the IC50 is the concentration that gives 50% inhibition. A word on the AUC(0-inf): it is total exposure, with the tail of the curve extrapolated. The low end stands for low exposure, the high end for high exposure. One may read the half-life as how long it takes for the measured level to halve. High values mean slow loss, low ones fast loss. For orientation: melting point means the temperature, or range, at which the solid turns liquid.
